{"source": "patent US4595698A", "about": "“Physiologically active substance, arphamenine and production thereof” (Zaidan Hojin Biseibutsu Kagaku Kenkyu Kai, priority 1982, dated 1986)", "key": {"mice": {"system": "mice", "experiment": "Acute toxicity tests in mice by intravenous injection", "format": "in vivo", "details": "iv. dose of 250 mg/kg", "method": "Acute toxicity tests in mice by intravenous injection have shown that no deaths are caused by arphamenine A in an iv. dose of 250 mg/kg or by arphamenine B in an iv. dose of 150 mg/kg. […] These new compounds are therefore useful as immunopotentiators and anti-tumor immunomodulators or as adjuvants to various chemotherapeutic agents for use in the treatment of carcinomas."}, "[1]": {"system": "cell-mediated immunity (D.T.H. to SRBC)", "experiment": "D.T.H. to SRBC in tumor-bearing (Sarcoma 180) mice, Test Example 2 (1)", "format": "in vivo, CDF1 mice", "details": "for Increased thickness of footpad / T/C (%): 4 days; for T/C (%): control = 100", "method": "The swelling degree on the footpad in mice was evaluated in the same way as in Test Example 1, except that the CDF1 mice employed for the test previously received an intraperitoneal inoculation of 10^6 Sarcoma 180 cells, and that arphamenine A was administered intraperitoneally once daily for 4 consecutive days, including the day of inoculation of SRBC, and two days after the administration, SRBC was given to the treated mice to elicit D.T.H. response."}, "aminopeptidase B": {"target": "T1, aminopeptidase B (Rattus norvegicus, UniProt O09175)", "T1 construct": "an aminopeptidase B which had been purified with DEAE-Cellulose; from tissue", "T1 sequence (O09175 1-650)": "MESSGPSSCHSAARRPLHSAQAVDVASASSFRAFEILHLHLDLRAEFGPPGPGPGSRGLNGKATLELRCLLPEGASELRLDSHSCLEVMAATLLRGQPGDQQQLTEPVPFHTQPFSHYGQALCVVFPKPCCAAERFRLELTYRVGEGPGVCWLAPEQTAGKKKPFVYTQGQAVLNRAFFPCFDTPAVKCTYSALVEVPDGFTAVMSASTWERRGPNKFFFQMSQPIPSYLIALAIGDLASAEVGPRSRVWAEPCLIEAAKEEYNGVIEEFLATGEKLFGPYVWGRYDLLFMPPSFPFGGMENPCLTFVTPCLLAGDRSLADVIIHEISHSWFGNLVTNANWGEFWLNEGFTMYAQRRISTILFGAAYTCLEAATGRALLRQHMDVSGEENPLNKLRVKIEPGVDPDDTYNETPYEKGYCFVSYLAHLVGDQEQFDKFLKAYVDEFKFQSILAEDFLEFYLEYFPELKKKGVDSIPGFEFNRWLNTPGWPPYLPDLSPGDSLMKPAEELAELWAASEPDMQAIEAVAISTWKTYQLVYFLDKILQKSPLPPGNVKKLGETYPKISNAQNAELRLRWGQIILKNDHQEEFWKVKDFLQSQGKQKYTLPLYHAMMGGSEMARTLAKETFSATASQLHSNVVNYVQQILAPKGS", "experiment": "Inhibition of aminopeptidase B (arginine-β-naphthylamide degradation, modified Hoppusu method)", "format": "biochemical", "method": "Tracing of arphamenine which was made during the course of cultivation of the arphamenine-producing strain, as well as during the course of recovery and purification of arphamenine was conducted by determining the anti-aminopeptidase B potency of arphamenine according to the following methods.\nIn detail, 0.5 ml of 0.1 M tris-hydrochloride buffer solution (pH 7.0) and 0.25 ml of a solution containing an arphamenine specimen were added to 0.25 ml of a substrate solution containing 0.002 M arginine-β-naphthylamide. The mixed solution so obtained was heated at 37° C. for 3 minutes. To the heated solution was added 5 μl of a solution of an aminopeptidase B which had been purified with DEAE-Cellulose according to the enzyme-purification technique of Hoppusu et al. The resulting mixture was reacted for 30 minutes at 37° C., and the resultant reaction mixture was admixed with 1 ml of 1.0 M acetate buffer solution (pH 4.2) containing Fast Garnet GBC (o-aminoazotoluene, diazonium salt) at a concentration of 1 mg/ml and a surfactant \"Tween\" 20 at a concentration of 10% to stop the enzyme reaction. After allowing the resulting mixture to stand at ambient temperature for 15 minutes, absorbance (a) at 525 nm of the reaction solution was measured. On the other hand, adsorbance (b) at 525 nm of a control reaction solution obtained from the blank test using the buffer solution containing no arphamenine was measured. Percent of inhibition to the aminopeptidase B was calculated from the equation [(b-a)/b]×100."}, "Ehrlich Solid Tumor": {"system": "Ehrlich Solid Tumor", "experiment": "Anti-tumor activity against Ehrlich Solid Tumor, Test Example 3", "format": "in vivo, ddY mice", "details": "for Average size of tumor / Average weight of tumor / TIR (%), tumor size / TIR (%), tumor weight: 7 times on alternate days, day 30", "method": "Anti-tumor activity of arphamenine against Ehrlich Solid Tumor.\n3×10^6 cells of Ehrlich ascites tumor were transplanted subcutaneously into the flank of ddY mice (8-week old, female, 5 mice per group). The day of this transplantation was designated as Day 0. Then, 0.5, 0.05 or 0.005 mg/kg of the test compound dissolved in physiological saline solution was orally administered to the mice a total of 7 times on alternate days until Day 15, beginning on Day 1. On day 30, the size (shorter diameter^2 ×longer diameter/2) of tumor and the weight of tumor were measured. The results in this treated group of mice were compared with those in the control group of mice to calculate tumor inhibition rate (TIR, %) according to the following equation: [formula] where C denotes the size or weight of tumor in the control group, and T denotes the size or weight of tumor in the treated group."}, "[2]": {"system": "cell-mediated immunity (D.T.H. response to sheep red blood cells)", "experiment": "Delayed Type Hypersensitivity (D.T.H.) to SRBC in normal mice, Test Example 1", "details": "for Increased thickness of footpad / T/C (%): Table 1, single oral dose; for T/C (%): control = 100", "experimental": "Effect of arphamenine on cell-mediated immunity in normal mice.\nEffect of arphamenines A and B on the cell-mediated immunity was tested according to a known Delayed Type Hypersensitivity (D.T.H.) technique (see P. H. Lagrange, G. B. Mackaness and T. E. Miller: \"J. Exp. Med.\", 139, 1529~1539 (1974)) using mice immunized with sheep red blood cells (SRBC) as the antigen inoculated to the foot-pad pad of the mice.\nThus, 10^8 SRBC suspended in 0.05 ml of physiological saline was inoculated by subcutaneous injection to the one side of hind footpad of CDF1 mice (5 mice per group, female, 8-weeks old) to make immunization. At the time of this immunization, an aqueous solution containing 5 mg/kg, 0.5 mg/kg, 0.05 mg/kg or 0.005 mg/kg of arphamenine A or B was administered orally at a single dose to each test mice. 4 Days after the immunization, 10^8 SRBC in 0.05 ml of physiological saline was injected subcutaneously into the other side of the hind footpad of the test mice for elicitation of D.T.H. response. 24 Hours after the eliciting injection, the thickness (in mm) of the hind footpad having received the eliciting injection of SRBC was measured with calipers. At the same time, the thickness of the other side of footpad which had not received the eliciting injection of SRBC was also measured in each mouse.\nThe increase of footpad thickness (the swelling degree) was calculated by the following equation: [formula]\nThe effect of arphamenine on the DTH response was evaluated by the following equation: [formula]\nTherefore, the assumption was here that the value for the control mice (untreated) was evaluated to be 100%."}, "[3]": {"details": "Table 3, fourth line, 0.005 mg/kg intraperitoneally once daily"}, "[4]": {"details": "Table 3, third line, 0.005 mg/kg (so in the source) intraperitoneally once daily"}, "[5]": {"details": "Table 3, 0.5 mg/kg intraperitoneally once daily"}, "[6]": {"details": "Table 3, 5 mg/kg intraperitoneally once daily"}}, "note": "Like-named read-outs stand apart in the source and are kept apart here."}
{"smiles": "N=C(N)NCCCC(N)C(=O)CC(Cc1ccccc1)C(=O)O", "note": "(stereo not shown) [Arphamenine A]", "values": [{"measurement": "deaths, acute toxicity", "setting": "mice", "value": "no deaths"}, {"measurement": "Increased thickness of footpad", "setting": "[1]; [3]", "value": "5.9 ± 0.79", "unit": "× 0.1 mm"}, {"measurement": "T/C (%)", "setting": "[1]; [3]", "value": 131, "unit": "%"}, {"measurement": "Increased thickness of footpad", "setting": "[1]; [4]", "value": "6.5 ± 1.29", "unit": "× 0.1 mm"}, {"measurement": "T/C (%)", "setting": "[1]; [4]", "value": 144, "unit": "%"}, {"measurement": "Increased thickness of footpad", "setting": "[1]; [5]", "value": "6.7 ± 1.03", "unit": "× 0.1 mm"}, {"measurement": "T/C (%)", "setting": "[1]; [5]", "value": 149, "unit": "%"}, {"measurement": "Increased thickness of footpad", "setting": "[1]; [6]", "value": "5.8 ± 1.19", "unit": "× 0.1 mm"}, {"measurement": "T/C (%)", "setting": "[1]; [6]", "value": 129, "unit": "%"}, {"measurement": "cell-mediated immunity depressed by the tumor (in words)", "setting": "[1]; tumor-bearing", "value": "modulate the cell-mediated immunity depressed by the tumor"}, {"measurement": "IC50", "setting": "aminopeptidase B; colorless, pure powder, Examples 4 and 5, read-out: anti-aminopeptidase B potency, IC50 (converted)", "value": 16.9, "unit": "nM"}, {"measurement": "IC50", "setting": "aminopeptidase B; colorless, pure product, pH 7.0, 37° C., 30 minutes, read-out: IC50, dose giving 50% inhibition to the aminopeptidase B (converted)", "value": 15.6, "unit": "nM"}, {"measurement": "IC50", "setting": "aminopeptidase B; crude powder after CM-Sephadex C-25, Example 3, read-out: anti-aminopeptidase B potency, IC50 (converted)", "value": 20.3, "unit": "nM"}, {"measurement": "IC50", "setting": "aminopeptidase B; light yellow powder after Biogel P-2, Examples 8 and 9, read-out: anti-aminopeptidase B potency (IC50) (converted)", "value": 93.6, "unit": "nM"}, {"measurement": "Average size of tumor", "setting": "Ehrlich Solid Tumor; 0.005 mg/kg orally", "value": "2378 ± 3138", "unit": "mm^3"}, {"measurement": "Average weight of tumor", "setting": "Ehrlich Solid Tumor; 0.005 mg/kg orally", "value": "1.62 ± 1.44", "unit": "g"}, {"measurement": "TIR (%), tumor size", "setting": "Ehrlich Solid Tumor; 0.005 mg/kg orally", "value": 55.2, "unit": "%"}, {"measurement": "TIR (%), tumor weight", "setting": "Ehrlich Solid Tumor; 0.005 mg/kg orally", "value": 39.3, "unit": "%"}, {"measurement": "TIR (%), tumor size", "setting": "Ehrlich Solid Tumor; 0.05 mg/kg orally", "value": 41.2, "unit": "%"}, {"measurement": "TIR (%), tumor weight", "setting": "Ehrlich Solid Tumor; 0.05 mg/kg orally", "value": 37.8, "unit": "%"}, {"measurement": "Average weight of tumor", "setting": "Ehrlich Solid Tumor; 0.05 mg/kg orally, **P < 0.05 (Ttest)", "value": "1.66 ± 1.50", "unit": "g"}, {"measurement": "Average size of tumor", "setting": "Ehrlich Solid Tumor; 0.05 mg/kg orally, *P < 0.1 (Ttest)", "value": "3120 ± 3584", "unit": "mm^3"}, {"measurement": "Average size of tumor", "setting": "Ehrlich Solid Tumor; 0.5 mg/kg orally", "value": "4467 ± 4311", "unit": "mm^3"}, {"measurement": "Average weight of tumor", "setting": "Ehrlich Solid Tumor; 0.5 mg/kg orally", "value": "2.62 ± 1.90", "unit": "g"}, {"measurement": "TIR (%), tumor size", "setting": "Ehrlich Solid Tumor; 0.5 mg/kg orally", "value": 15.8, "unit": "%"}, {"measurement": "TIR (%), tumor weight", "setting": "Ehrlich Solid Tumor; 0.5 mg/kg orally", "value": 1.9, "unit": "%"}, {"measurement": "host-mediated anti-tumor effect in terms of tumor size and tumor weight (in words)", "setting": "Ehrlich Solid Tumor; 0.05 and 0.005 mg/kg", "value": "produced a host-mediated anti-tumor effect"}, {"measurement": "host-mediated anti-tumor effect (in words)", "setting": "Ehrlich Solid Tumor; summary statement", "value": "exhibit a host-mediated anti-tumor effect"}, {"measurement": "Increased thickness of footpad", "setting": "[2]; 0.005 mg/kg", "value": "11.9 ± 1.00", "unit": "× 0.1 mm"}, {"measurement": "T/C (%)", "setting": "[2]; 0.005 mg/kg", "value": 143, "unit": "%"}, {"measurement": "Increased thickness of footpad", "setting": "[2]; 0.05 mg/kg", "value": "13.0 ± 0.97", "unit": "× 0.1 mm"}, {"measurement": "T/C (%)", "setting": "[2]; 0.05 mg/kg", "value": 157, "unit": "%"}, {"measurement": "Increased thickness of footpad", "setting": "[2]; 0.5 mg/kg", "value": "11.5 ± 1.29", "unit": "× 0.1 mm"}, {"measurement": "T/C (%)", "setting": "[2]; 0.5 mg/kg", "value": 139, "unit": "%"}, {"measurement": "Increased thickness of footpad", "setting": "[2]; 5 mg/kg", "value": "10.4 ± 0.77", "unit": "× 0.1 mm"}, {"measurement": "T/C (%)", "setting": "[2]; 5 mg/kg", "value": 125, "unit": "%"}, {"measurement": "cell-mediated immunity in normal animals (in words)", "setting": "[2]; normal animals", "value": "potentiate the cell-mediated immunity in normal animals"}]}
